From ChEMBL document CHEMBL1201862, “PubChem BioAssay data set” (2004)
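Exposure lasted 48 hours, with cells grown in 96-well plates and compounds tested at five concentrations. GI50 = concentration required for 50% inhibition of growth.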 Activity calls are given as the source filed them. Rule as the data show it: active = GI50 up to about 1.1 µM and inactive = higher.

Tests used:
Assay in all cases: NCI anticancer screen, dose series, 48 h
SK-OV-3 = system: SK-OV-3
MOLT-4 = system: MOLT-4
SR = system: SR
CAKI-1 = system: CAKI-1
COLO 205 = system: COLO 205
T47D = system: T47D
SF-539 = system: SF-539
NCI-H460 = system: NCI-H460
SK-MEL-5 = system: SK-MEL-5
786-0 = system: 786-0
MDA-N = system: MDA-N
UACC-62 = system: UACC-62
M14 = system: M14
TK-10 = system: TK-10
HCT-15 = system: HCT-15
RXF 393 = system: RXF 393
KM12 = system: KM12
EKVX = system: EKVX
UACC-257 = system: UACC-257
SN12C = system: SN12C
SW-620 = system: SW-620
CCRF-CEM = system: CCRF-CEM
SK-MEL-2 = system: SK-MEL-2
HCT-116 = system: HCT-116
K562 = system: K562
BT-549 = system: BT-549
SF-268 = system: SF-268
NCI-H226 = system: NCI-H226
OVCAR-8 = system: OVCAR-8
SNB-19 = system: SNB-19
MDA-MB-435 = system: MDA-MB-435
HOP-92 = system: HOP-92
A498 = system: A498
HL-60 = system: HL-60
PC-3 = system: PC-3
SNB-75 = system: SNB-75
U-251 = system: U-251
SK-MEL-28 = system: SK-MEL-28
IGROV-1 = system: IGROV-1
Malme-3M = system: Malme-3M
A549 = system: A549
NCI/ADR-RES = system: NCI/ADR-RES
SF-295 = system: SF-295
DU-145 = system: DU-145
ACHN = system: ACHN
OVCAR-4 = system: OVCAR-4
UO-31 = system: UO-31
OVCAR-5 = system: OVCAR-5
RPMI-8226 = system: RPMI-8226
MDA-MB-231 = system: MDA-MB-231
OVCAR-3 = system: OVCAR-3
Hs-578T = system: Hs-578T
NCI-H23 = system: NCI-H23
MCF7 = system: MCF7
HOP-62 = system: HOP-62
HCC 2998 = system: HCC 2998
NCI-H522 = system: NCI-H522
HT-29 = system: HT-29
LOX IMVI = system: LOX IMVI

For O=C1Oc2ccccc2C(=O)/C1=C1/C=C(c2ccccc2)SS1, the GI50 (SK-OV-3) was > 100 µM (inactive), the GI50 (MOLT-4) was 30.4 µM (inactive) and the GI50 (SR) was 28.3 µM (inactive). For the same compound, the GI50 (CAKI-1) was 49.2 µM (inactive), the GI50 (COLO 205) was 57.5 µM (inactive) and the GI50 (T47D) was > 100 µM (inactive). For the same compound, the GI50 (SF-539) was > 100 µM (inactive), the GI50 (NCI-H460) was > 100 µM (inactive) and the GI50 (SK-MEL-5) was > 100 µM (inactive). For the same compound, the GI50 (786-0) was > 100 µM (inactive), the GI50 (MDA-N) was 34.8 µM (inactive) and the GI50 (UACC-62) was 82.8 µM (inactive). For the same compound, the GI50 (M14) was 43.8 µM (inactive), the GI50 (TK-10) was > 100 µM (inactive) and the GI50 (HCT-15) was 40 µM. The GI50 (RXF 393) was 63.2 µM (inactive), the GI50 (KM12) was > 100 µM (inactive) and the GI50 (EKVX) was > 100 µM (inactive). The GI50 (UACC-257) was > 100 µM (inactive), the GI50 (SN12C) was 69 µM (inactive) and the GI50 (SW-620) was > 100 µM (inactive). For the same compound, the GI50 (CCRF-CEM) was 22.6 µM (inactive), the GI50 (SK-MEL-2) was > 100 µM (inactive) and the GI50 (HCT-116) was 56.6 µM (inactive). For the same compound, the GI50 (K562) was 42.5 µM (inactive), the GI50 (BT-549) was > 100 µM (inactive) and the GI50 (SF-268) was 86.7 µM (inactive). For the same compound, the GI50 (NCI-H226) was 24.3 µM (inactive), the GI50 (OVCAR-8) was > 100 µM (inactive) and the GI50 (SNB-19) was 81.8 µM (inactive). The GI50 (MDA-MB-435) was 48.9 µM (inactive), the GI50 (HOP-92) was 15.6 µM (inactive) and the GI50 (A498) was > 100 µM (inactive). The GI50 (HL-60) was 21.9 µM (inactive), the GI50 (PC-3) was > 100 µM (inactive) and the GI50 (SNB-75) was > 100 µM (inactive). For the same compound, the GI50 (U-251) was 76 µM (inactive), the GI50 (SK-MEL-28) was > 100 µM (inactive) and the GI50 (IGROV-1) was 86.5 µM (inactive). The GI50 (Malme-3M) was 96.4 µM (inactive), the GI50 (A549) was > 100 µM (inactive) and the GI50 (NCI/ADR-RES) was 60.1 µM (inactive). For the same compound, the GI50 (SF-295) was > 100 µM (inactive), the GI50 (DU-145) was 85.5 µM (inactive) and the GI50 (ACHN) was > 100 µM (inactive). The GI50 (OVCAR-4) was 91 µM (inactive), the GI50 (UO-31) was > 100 µM (inactive) and the GI50 (OVCAR-5) was > 100 µM (inactive). For the same compound, the GI50 (RPMI-8226) was > 100 µM (inactive), the GI50 (MDA-MB-231) was 80.4 µM (inactive) and the GI50 (OVCAR-3) was 71.1 µM (inactive). For the same compound, the GI50 (Hs-578T) was > 100 µM (inactive), the GI50 (NCI-H23) was > 100 µM (inactive) and the GI50 (MCF7) was > 100 µM (inactive). The GI50 (HOP-62) was > 100 µM (inactive), the GI50 (HCC 2998) was 96.8 µM (inactive) and the GI50 (NCI-H522) was 49.3 µM (inactive). For the same compound, the GI50 (HT-29) was 40.6 µM (inactive) and the GI50 (LOX IMVI) was 64.7 µM (inactive).
